Measured values reported in US20170280720A1, “ARGININE […] INHIBITORS AND USES THEREOF” (EPIZYME, INC., priority 2014, published 2017).

Biological target: T1, Human CARM1 (PRMT4) (Homo sapiens, UniProt Q86X55)
T1 construct: Flag-CARM1-His; made in house; host or cells: HEK 293F cells (BacMam baculovirus, pFastBacMam)
T1 sequence (Q86X55 2-585 isoform Q86X55-1): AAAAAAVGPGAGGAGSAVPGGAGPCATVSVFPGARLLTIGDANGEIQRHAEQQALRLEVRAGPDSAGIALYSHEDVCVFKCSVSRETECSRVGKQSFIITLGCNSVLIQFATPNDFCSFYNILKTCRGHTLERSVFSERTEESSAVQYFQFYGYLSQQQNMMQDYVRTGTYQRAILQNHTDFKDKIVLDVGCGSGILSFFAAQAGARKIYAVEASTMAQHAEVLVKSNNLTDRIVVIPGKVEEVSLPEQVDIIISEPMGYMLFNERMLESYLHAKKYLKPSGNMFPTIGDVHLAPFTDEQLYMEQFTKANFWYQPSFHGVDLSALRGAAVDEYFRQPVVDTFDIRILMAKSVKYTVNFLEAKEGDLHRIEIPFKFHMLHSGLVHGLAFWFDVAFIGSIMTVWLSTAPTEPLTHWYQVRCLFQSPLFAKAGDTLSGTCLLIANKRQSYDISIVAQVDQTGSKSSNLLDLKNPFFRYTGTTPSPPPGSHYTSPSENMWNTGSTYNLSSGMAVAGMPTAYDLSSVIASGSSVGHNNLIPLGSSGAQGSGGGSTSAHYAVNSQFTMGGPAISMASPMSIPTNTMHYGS
Test: CARM1 biochemical assay (3H-SAM Flashplate, peptide substrate)
Settings: read-out: CARM1_ IC50
Summary of the method: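 FLAG/His-tagged human CARM1 (isoform 1, Δ539-561, baculovirus-expressed), 0.25 nM, preincubated 30 min at room temperature with compound (2% DMSO) in 20 mM Bicine pH 7.6, then reacted with 30 nM 3H-SAM and 250 nM biotinylated H3 16-30 peptide (R26 monomethyl). Stopped with 300 uM cold SAM; labelled peptide captured on streptavidin Flashplate; % inhibition versus DMSO and 1 mM SAH controls fitted to a 4- or 3-parameter curve.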

IC50 [nM] | SMILES
8.9 | CNCCN(C)Cc1cccc(-c2nc(C(=O)NCc3cn4ccsc4n3)c3cnn(C4CC4)c3n2)c1 [Compound 180]
10.3 | CNCCN(C)Cc1cccc(-c2cc(C(=O)NCc3ccncc3)c3cnn(C(C)C)c3n2)c1 [Compound 182]
63.1 | CC(C)n1ncc2c(C(=O)N(C)CC3CCOCC3)cc(-c3cccc(CN(C)CCN)c3)nc21 [Compound 256]
205 | CNCCN(C)Cc1cccc(-c2cc(C(=O)N(C)Cc3ccccn3)c3cnn(C(C)C)c3n2)c1 [Compound 300]
50000 | Cc1cc(C)c(CNC(=O)c2cc(-c3ccc(CNCCN(C)C)cc3)nc3c2cnn3C(C)C)c(=O)[nH]1 [Compound 359]
14.4 | Cc1cc(C)c(CNC(=O)c2cc(-c3cccc(CNCCN)c3)nc3c2cnn3C(C)C)c(=O)[nH]1 [Compound 365]
9.01 | CNCCN(C)Cc1cccc(-c2cc(C(=O)NCCCCCC(=O)NCc3c(C)cc(C)[nH]c3=O)c3cnn(C(C)C)c3n2)c1 [Compound 382]
18.8 | CNCCN(C)Cc1cccc(-c2cc(C(=O)NCCC(=O)NCc3c(C)cc(C)[nH]c3=O)c3cnn(C(C)C)c3n2)c1 [Compound 384]
7.11 | CNCCN(C)Cc1cccc(-c2cc(C(=O)NCCCCC(=O)NCc3c(C)cc(C)[nH]c3=O)c3cnn(C(C)C)c3n2)c1 [Compound 385]
141 | COc1nc(C)cc(C)c1CNC(=O)c1cc(-c2cccc(CNCCN)c2)nc2c1cnn2C(C)C [Compound 391]

More lines, now with the values behind:

SMILES | IC50 [nM]
CNCCN(C)Cc1cccc(-c2nc(NCc3nccs3)c3cnn(C4CC4)c3n2)c1 [Compound 2] | 16.8
CN(CCN)Cc1cccc(-c2ccc(C(=O)NCC3CCOCC3)c(N(C)CC3CC3)c2)c1 [Compound 263] | 72.2
Cc1cc(C)c(CNC(=O)c2cc(-c3cccc(CN(C)CCN)c3)nc3c2cnn3C(C)C)c(=O)[nH]1 [Compound 360] | 19.5
Cc1cc(C)c(CNC(=O)c2cc(-c3cccc(CN(C)CCN(C)C)c3)nc3c2cnn3C(C)C)c(=O)[nH]1 [Compound 361] | 254
CNCCN(C)Cc1ccc(-c2cc(C(=O)NCc3c(C)cc(C)[nH]c3=O)c(C)c3n[nH]cc23)cc1 [Compound 362] | 1980
Cc1cc(C)c(CNC(=O)c2cc(-c3cccc(CNCCN)c3)cc3[nH]ncc23)c(=O)[nH]1 [Compound 366] | 1390
CNCCN(C)Cc1cccc(-c2cc(C(=O)NCc3c(C)cc(C)[nH]c3=O)c3cnn(C(C)C)c3c2)c1 [Compound 367] | 184
CNCCN(C)Cc1cccc(-c2cc(C(=O)NCc3c(C)cc(C)[nH]c3=O)c3cnn(C(C)C)c3n2)c1 [Compound 368] | 6.11
CNCCN(C)Cc1ccc(-c2cc(C(=O)NCc3c(C)cc(C)[nH]c3=O)c(C)c3nn(C4CCCC4)cc23)cc1 [Compound 370] | 7260
Cc1cc(C)c(CNC(=O)c2cc(CNCCN(C)C)cc3c2cnn3C2CCCC2)c(=O)[nH]1 [Compound 371] | 28300
CNCCN(C)Cc1cccc(-c2cc(C(=O)NCc3c(C)cc(C)[nH]c3=O)c(C)c3[nH]ncc23)c1 [Compound 372] | 4310
CNCCN(C)Cc1ccc(-c2cncc(C(=O)NCc3c(C)cc(C)[nH]c3=O)c2)cc1 [Compound 373] | 5770
Cc1cc(C)c(CNC(=O)c2cncc(-c3ccc(CN(C)CCN)cc3)c2)c(=O)[nH]1 [Compound 374] | 9830
Cc1cc(C)c(CNC(=O)c2cncc(-c3ccc(CN(C)CCN(C)C)cc3)c2)c(=O)[nH]1 [Compound 378] | 19600
Cc1cc(C)c(CNC(=O)c2cncc(-c3ccc(CNCCN)cc3)c2)c(=O)[nH]1 [Compound 379] | 6570
CNCCN(C)Cc1cccc(-c2cc(C(=O)NCCCC(=O)NCc3c(C)cc(C)[nH]c3=O)c3cnn(C(C)C)c3n2)c1 [Compound 383] | 8.39
COc1nc(C)cc(C)c1CNC(=O)c1cc(-c2cccc(CN(C)CCN(C)C)c2)nc2c1cnn2C(C)C [Compound 386] | 209
